Reference: PubChem BioAssay (NCI)
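96-well plates; 48 h exposure; 5 concentrations. Endpoints by linear interpolation between flanking doses. Not reached: highest tested concentration assigned. At the GI50, growth is halved. The concentration for full growth arrest is given as TGI.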 Where a SMILES comes first, the peptide text is derived from it. [ ]: non-standard residue; d: D form. Phe(4-Cl) = N[CH](Cc1ccc(Cl)cc1)C(=O)O

How the values were obtained:
Test in all cases: growth of human tumour cells (NCI), 48 h
[1] = tested on: T-47D breast
[2] = tested on: HS 578T breast
[3] = tested on: KM20L2 colon
[4] = tested on: XF 498 CNS
[5] = tested on: DMS 114 small cell lung
[6] = tested on: LXFL 529 NSCLC
[7] = tested on: HOP-18 NSCLC
[8] = tested on: MDA-N
[9] = tested on: RXF-631 renal

| SMILES | GI50 [1] [µM] | TGI [1] [µM] | GI50 [2] [µM] | TGI [2] [µM] | TGI [3] [µM] | TGI [5] [µM] | TGI [6] [µM] | other results |
| --- | --- | --- | --- | --- | --- | --- | --- | --- |
| O=C(c1cccc(O)c1O)c1cn(Cc2ccc(F)cc2)c2cccc(O)c12 | 3.16 | 16.2 | 3.42 | 20.6 |  |  |  |  |
| CCN(CC)c1ccc(C(=N)c2ccc(N(CC)CC)cc2)cc1 | 0.311 | 1.73 | 0.59 | 2.39 |  |  |  |  |
| CC(C)=CCC/C(=C/CC/C(C)=C/CCc1ccoc1)C(=O)O |  |  |  |  | > 100 | > 100 | > 100 | TGI [4]: > 100 µM |
| CCCCCCCCCCCCCC1CCC(CC)N1 (stereo not drawn) |  |  |  |  | 26.2 | 17.4 | 32.6 | TGI [7]: 30.9 µM |
| N.N.N.N.N.O=C([O-])c1nn[n-]n1.[Cl-].[Co+3] |  |  |  |  | > 100 |  | > 100 | GI50 [3]: > 100 µM; GI50 [7]: > 100 µM; TGI [7]: > 100 µM; GI50 [6]: > 100 µM |
| Fc1cc(F)c(COc2cc(Cn3cnc4c(Cl)nc(Cl)nc43)ccc2C23CC4CC(CC(C4)C2)C3)cc1F | 16.7 | 45.1 | 22.9 | 60.9 |  |  |  |  |
| Cc1ccc(/C(=C/C=C(C#N)C#N)Sc2ccc(Cl)cc2)cc1 | 18.8 | 56.5 | 14.3 | 58.4 |  |  |  |  |
| COc1cc2oc(-c3ccc(O)cc3)cc(=O)c2c(OC)c1OC |  | > 100 |  | > 100 |  |  |  | TGI [8]: > 100 µM |
| CN(C)c1ccc(N)cc1 | 3.25 | 9.7 |  |  |  |  |  |  |
| CCOC(=O)c1c(CN2CCN(c3ccccc3)CC2)n(-c2ccccc2)c2cc(Br)c(O)cc12 | 7.59 | 37.9 | 14.4 | > 100 |  |  |  |  |
| CC/C=C\C[C@@H]1C/C=C2/C(=O)C=C[C@H]2C/C=C\CCCC(=O)O1 | 1.6 | 6.28 | 2.84 | 9.11 |  |  |  |  |
| COc1cc(NC(=O)c2cc(O)c(CC=C(C)C)c(O)c2)cc2c1O[C@]1(C)CC[C@@H](O)C(C)(C)[C@H]1C2 | 2.44 | 22.6 | 0.456 | 15.5 |  |  |  |  |
| CCS(=O)(=O)c1ccc(OC)c(Nc2ncc(-c3cccc(OC)c3)o2)c1 | 8.18 | > 25 | 5.48 | 17.6 |  |  |  |  |
| COc1c2c(cc3nc4ccccc4nc13)CCC(C(C)(C)O)C2 (stereo not drawn) |  |  |  |  | > 100 |  | > 100 | TGI [7]: > 100 µM; TGI [4]: > 100 µM |
| Cn1cc(C(=O)c2ccccc2)ccc1=O |  |  |  |  | > 100 | > 100 | > 100 | TGI [4]: > 100 µM |
| Nc1ccc(/C=C/c2ccnc3ccccc23)cc1 |  |  |  |  | 46.6 | 45.8 | 58.7 |  |
| CN(C)CCCn1c2c(c3ccccc3c1=O)C(=O)c1ccccc1-2 | 3.01 | 14.8 | 8.06 | 38 |  |  |  |  |
| c1ccc(C2=NNC3c4ccccc4-c4ccccc4N3C2)cc1 (stereo not drawn) |  | 92.4 |  | > 100 |  |  |  | TGI [8]: > 100 µM |

| SMILES | GI50 [1] [µM] | TGI [1] [µM] | GI50 [2] [µM] | TGI [2] [µM] | TGI [3] [µM] | TGI [5] [µM] | TGI [6] [µM] | other results |
| --- | --- | --- | --- | --- | --- | --- | --- | --- |
| CCN(CC)c1sc(N(CC)CC)c2c1SSSSS2 | 3.17 | > 100 | 2.75 | 23.2 |  |  |  |  |
| O=c1cccccc1NCCCNc1cccccc1=O |  |  |  |  | > 100 | > 100 | > 100 | TGI [4]: > 100 µM; TGI [9]: > 100 µM |
| COC(=O)C1=NC(=S)NC(c2ccccc2)C1c1nc2ccccc2s1 (stereo not drawn) |  |  |  |  | > 100 | > 100 | > 100 | TGI [7]: > 100 µM; TGI [9]: > 100 µM |
| CCN(CC)CCN1CC(O)=C(c2nc(-c3ccc(Cl)cc3)cs2)C1=N | 2.19 | 5.11 | 1.5 | 3.59 |  |  |  |  |
| CC1=C(C)CC2(CCCCC2=O)S(=O)C1 (stereo not drawn) |  |  |  |  | > 100 | > 100 | > 100 | TGI [7]: > 100 µM; TGI [4]: > 100 µM |
| CC(O)C(NC(=O)C(Cc1ccccc1)NC(=O)C(NC(=O)C(CCCCN)NC(=O)C(Cc1c[nH]c2ccccc12)NC(=O)C(Cc1ccc(O)cc1)NC(=O)C(Cc1ccc(Cl)cc1)NC(=O)C(N)Cc1ccccc1)C(C)O)C(N)=O (stereo not drawn) (H-F[Phe(4-Cl)]YWKTFT-NH2; configuration not given here) |  |  |  |  | 48.7 | 37.8 | 39.4 | TGI [4]: 28.9 µM; TGI [9]: 42.4 µM |
| CCN(CC)CCCC(C)Nc1c(C)cnc2cc(Cl)c(C)cc12 (stereo not drawn) | 22.9 | > 61.7 | 19.1 | 45.2 |  |  |  |  |
| NC1=NN(c2ccccc2)C(=O)C1C(=O)CCC(=O)Nc1cccc(C(F)(F)F)c1 (stereo not drawn) |  |  |  |  | > 100 | > 100 | > 100 | TGI [7]: > 100 µM; TGI [9]: > 100 µM |
| COc1ccc(OC)c(/C=C/C(=O)N/N=C/c2ccc(Cl)cc2)c1 | 0.0786 | > 65.8 | 0.188 | > 100 |  |  |  |  |
| CCCCN=C(N)c1ccc(OCCSCCOc2ccc(C(N)=NCCCC)cc2)cc1 | 1.83 | 24.8 | 34.2 | > 100 |  |  |  |  |
| CCN1C(=O)CNc2ncc(-c3ccc(-c4ncn[nH]4)nc3C)nc21 | 0.0169 | 0.185 | 0.111 | 0.526 |  |  |  |  |
| O=C1c2ccccc2-c2c1c1ccccc1c(=O)n2Cc1ccccc1 |  | > 100 |  | > 100 |  |  |  | TGI [8]: > 100 µM |
| COc1ccc(-c2cn3ccsc3n2)cc1 |  |  |  |  | > 100 | > 100 | > 100 | TGI [7]: > 100 µM |
| CN(C)CCNC(=O)c1cccc(C(=O)Nc2ccccc2)c1[N+](=O)[O-] |  | > 100 |  | > 100 |  |  |  | TGI [8]: > 100 µM |
| Cc1ccc(Nc2nc3c(s2)C(=O)c2ccccc2C3=O)c(C)c1 |  |  |  |  | > 100 | 24.1 | 28.7 | TGI [7]: 20.1 µM; TGI [4]: 36.2 µM |
| COc1ccc2c(c1)C=C([N+](=O)[O-])C(C1OC(C)(C)OC1C1COC(C)(C)O1)O2 (stereo not drawn) |  | 26.6 |  | > 100 | 17.3 | 8.55 | 13.8 | TGI [7]: 42 µM; TGI [4]: 22.9 µM |
| CC1CN1CC(O)C(O)CN1CC1C (stereo not drawn) | 2.87 | > 71.4 | 11.3 | 57.4 |  |  |  |  |
| NCCCC[C@@H]1NC(=O)[C@H]2CCCN2C(=O)[C@H](Cc2ccccc2)NC(=O)[C@H](Cc2ccccc2)CNC1=O | > 100 | > 100 | > 100 | > 100 |  |  |  |  |
